Data: US11696917B2, “Agent enhancing antitumor effect using pyrazolo[3,4-d]pyrimidine compound” (TAIHO PHARMACEUTICAL CO., LTD., priority 2017, dated 2023)

System: NCI-N87 (human stomach cancer)
Experiment: Combination of Compound 1 and other antitumor agents (in vitro), CellTiter-Glo, median effect method
Assay type: cell-based
Procedure: The supplier of each reagent, the suppliers of tumor cell lines, the media used, and the numbers of cells to be inoculated are shown in the tables below.
The cells were inoculated at 20 μL/well to a 384-well culture plate (Corning Inc.). The plate inoculated with the cells were cultured in an incubator set to 37° C. and 5% CO2. On the day following inoculation, each of mixed solutions of Compound 1 and each other antitumor agent at varying combinations of concentrations was added to the cells. Specifically, 8 serial dilutions (including (0 nM)) of Compound 1 and 10 serial dilutions (including (0 nM)) of the other antitumor agent were prepared using Leibovitz's L-15 medium containing 10% FBS, or ATCC formulated RPMI-1640 medium containing 10% FBS. Drug solutions in which equal amounts of the respective serial dilutions of the compounds were dispensed were mixed at a ratio of 1:1 to prepare a total of 80 mixed drug solutions including every combination. Each of these mixed drug solutions was added at 5 μL/well (N=4) to the plate, followed by further culture for 3 days under conditions of 37° C. and 5% CO2.
Three days later, CellTiter-Glo™ 2.0 Reagent (Promega Corporation) was added thereto at 25 μL/well, and chemiluminescence was measured using a plate reader (EnSpire® Multimode Plate Reader, PerkinElmer Japan Co., Ltd.).
The enhancement of an effect by combined use of the drugs was evaluated according to a method known in the art (a method described in Trends Pharmacol. Sci., 4, 450-454, 1983 or Pharmacol Rev., 58 (3), 621-81, 2006).
An average value from 4 wells of each combination was calculated from the obtained data, and a cell survival rate normalized against a control supplemented with a medium containing a vehicle was calculated. A Fa (fraction of affect) value was calculated by subtracting the cell survival rate from 1. Median effect analysis software CalcuSyn 2.0 (CalcuSyn, Inc.) for calculation by the median effect method was used in the calculation of CI.
As for the combinations of the concentrations of both the drugs for calculating CI, a Fa value closer to 1 presumably means a concentration range in which one of the drugs had too strong an effect, and a Fa value closer to 0 presumably means a concentration range in which any of the drugs had too weak an effect. Since these concentration ranges were not appropriate for the discussion of a synergistic effect, combinations that satisfied 0.2 S Fa 0.8 were extracted from the combinations of the respective concentrations of Compound 1 and the other antitumor agent on the basis of the calculated Fa value.
An effect of combined use was determined as shown in the table below (Pharmacol Rev., 58 (3), p. 621-81, 2006).

[1] = Compound 1 0.137 nM + Cisplatin 2062 nM, ratio 1:15030, NCI-N87
[2] = Compound 1 0.137 nM + Gemcitabine 1.37 nM, ratio 1:10, NCI-N87
[3] = Compound 1 0.137 nM + Gemcitabine 4.12 nM, ratio 1:30, NCI-N87
[4] = Compound 1 0.137 nM + Gemcitabine 12.3 nM, ratio 1:90, NCI-N87
[5] = Compound 1 0.137 nM + Trifluridine 12346 nM, ratio 1:90000, NCI-N87
[6] = Compound 1 0.412 nM + Cisplatin 2062 nM, ratio 1:5010, NCI-N87
[7] = Compound 1 0.412 nM + Cisplatin 6185 nM, ratio 1:15030, NCI-N87
[8] = Compound 1 0.412 nM + FdUrd 4115 nM, ratio 1:10000, NCI-N87
[9] = Compound 1 0.412 nM + FdUrd 12346 nM, ratio 1:30000, NCI-N87
[10] = Compound 1 0.412 nM + FdUrd 37037 nM, ratio 1:90000, NCI-N87
[11] = Compound 1 0.412 nM + Trifluridine 1372 nM, ratio 1:3333, NCI-N87
[12] = Compound 1 0.412 nM + Trifluridine 4115 nM, ratio 1:10000, NCI-N87
[13] = Compound 1 0.412 nM + Trifluridine 12346 nM, ratio 1:30000, NCI-N87
[14] = Compound 1 0.412 nM + Trifluridine 37037 nM, ratio 1:90000, NCI-N87
[15] = Compound 1 1.24 nM + Cisplatin 6185 nM, ratio 1:5010, NCI-N87
[16] = Compound 1 1.24 nM + Cisplatin 18556 nM, ratio 1:15030, NCI-N87
[17] = Compound 1 1.24 nM + FdUrd 12346 nM, ratio 1:10000, NCI-N87
[18] = Compound 1 1.24 nM + FdUrd 37037 nM, ratio 1:30000, NCI-N87
[19] = Compound 1 1.24 nM + FdUrd 111111 nM, ratio 1:90000, NCI-N87
[20] = Compound 1 1.24 nM + Gemcitabine 1.37 nM, ratio 1:1.1, NCI-N87
[21] = Compound 1 1.24 nM + Gemcitabine 4.12 nM, ratio 1:3.3, NCI-N87
[22] = Compound 1 1.24 nM + Gemcitabine 12.3 nM, ratio 1:10, NCI-N87
[23] = Compound 1 1.24 nM + Gemcitabine 37.0 nM, ratio 1:30, NCI-N87
[24] = Compound 1 1.24 nM + Gemcitabine 111 nM, ratio 1:90, NCI-N87
[25] = Compound 1 1.24 nM + Paclitaxel 5.56 nM, ratio 1:4.5, NCI-N87
[26] = Compound 1 1.24 nM + Trifluridine 1372 nM, ratio 1:1111, NCI-N87
[27] = Compound 1 1.24 nM + Trifluridine 4115 nM, ratio 1:3333, NCI-N87
[28] = Compound 1 1.24 nM + Trifluridine 12346 nM, ratio 1:10000, NCI-N87
[29] = Compound 1 1.24 nM + Trifluridine 37037 nM, ratio 1:30000, NCI-N87
[30] = Compound 1 1.24 nM + Trifluridine 111111 nM, ratio 1:90000, NCI-N87
[31] = Compound 1 3.70 nM + Cisplatin 2062 nM, ratio 1:557, NCI-N87
[32] = Compound 1 3.70 nM + Cisplatin 6185 nM, ratio 1:1670, NCI-N87
[33] = Compound 1 3.70 nM + Cisplatin 18556 nM, ratio 1:5010, NCI-N87
[34] = Compound 1 3.70 nM + FdUrd 4115 nM, ratio 1:1111, NCI-N87
[35] = Compound 1 3.70 nM + FdUrd 12346 nM, ratio 1:3333, NCI-N87
[36] = Compound 1 3.70 nM + FdUrd 37037 nM, ratio 1:10000, NCI-N87
[37] = Compound 1 3.70 nM + FdUrd 111111 nM, ratio 1:30000, NCI-N87

**Q.** Which CI [1] does the source give for `C=CC(=O)N1CCC[C@@H](n2nc(C(=O)Nc3ccc(CC(=O)N(C)C)c(C)c3C)c3c(N)ncnc32)C1` [Compound 1, (R)-1-(1-acryloylpiperidin-3-yl)-4-amino-N-(4-(2-(dimethylamino)-2-oxoethyl)-2,3-dimethylphenyl)-1H-pyrazolo[3,4-d]pyrimidine-3-carboxamide] here?
**A.** 0.62

**Q.** And the Fa [1]?
**A.** 0.39

**Q.** And the CI [2]?
**A.** 0.03

**Q.** And the Fa [2]?
**A.** 0.69

**Q.** And the CI [3]?
**A.** 0.37

**Q.** What about the Fa [3] of the same compound?
**A.** 0.68

**Q.** And the CI [4]?
**A.** 0.01

**Q.** What about the Fa [4] of the same compound?
**A.** 0.73

**Q.** And the CI [5]?
**A.** 0.26

**Q.** And the Fa [5]?
**A.** 0.43

**Q.** What about the CI [6] of the same compound?
**A.** 0.64

**Q.** What about the Fa [6] of the same compound?
**A.** 0.36

**Q.** What about the CI [7] of the same compound?
**A.** 0.57

**Q.** What about the Fa [7] of the same compound?
**A.** 0.55

**Q.** What about the CI [8] of the same compound?
**A.** 0.39

**Q.** And the Fa [8]?
**A.** 0.25

**Q.** And the CI [9]?
**A.** 0.46

**Q.** And the Fa [9]?
**A.** 0.30

**Q.** And the CI [10]?
**A.** 0.63

**Q.** What about the Fa [10] of the same compound?
**A.** 0.41

**Q.** And the CI [11]?
**A.** 0.35

**Q.** What about the Fa [11] of the same compound?
**A.** 0.26

**Q.** And the CI [12]?
**A.** 0.65

**Q.** What about the Fa [12] of the same compound?
**A.** 0.26

**Q.** And the CI [13]?
**A.** 0.38

**Q.** And the Fa [13]?
**A.** 0.41

**Q.** And the CI [14]?
**A.** 0.34

**Q.** And the Fa [14]?
**A.** 0.54

**Q.** What about the CI [15] of the same compound?
**A.** 0.40

**Q.** What about the Fa [15] of the same compound?
**A.** 0.60

**Q.** And the CI [16]?
**A.** 0.42

**Q.** What about the Fa [16] of the same compound?
**A.** 0.72

**Q.** What about the CI [17] of the same compound?
**A.** 0.58

**Q.** What about the Fa [17] of the same compound?
**A.** 0.33

**Q.** And the CI [18]?
**A.** 0.70

**Q.** And the Fa [18]?
**A.** 0.39

**Q.** What about the CI [19] of the same compound?
**A.** 0.39

**Q.** What about the Fa [19] of the same compound?
**A.** 0.54

**Q.** What about the CI [20] of the same compound?
**A.** 0.07

**Q.** And the Fa [20]?
**A.** 0.70

**Q.** What about the CI [21] of the same compound?
**A.** 0.06

**Q.** And the Fa [21]?
**A.** 0.71

**Q.** And the CI [22]?
**A.** 0.04

**Q.** What about the Fa [22] of the same compound?
**A.** 0.77

**Q.** And the CI [23]?
**A.** 0.05

**Q.** What about the Fa [23] of the same compound?
**A.** 0.73

**Q.** And the CI [24]?
**A.** 0.05

**Q.** And the Fa [24]?
**A.** 0.72

**Q.** What about the CI [25] of the same compound?
**A.** 0.45

**Q.** What about the Fa [25] of the same compound?
**A.** 0.50

**Q.** And the CI [26]?
**A.** 0.78

**Q.** What about the Fa [26] of the same compound?
**A.** 0.24

**Q.** What about the CI [27] of the same compound?
**A.** 0.71

**Q.** And the Fa [27]?
**A.** 0.31

**Q.** And the CI [28]?
**A.** 0.37

**Q.** And the Fa [28]?
**A.** 0.48

**Q.** And the CI [29]?
**A.** 0.41

**Q.** What about the Fa [29] of the same compound?
**A.** 0.55

**Q.** And the CI [30]?
**A.** 0.68

**Q.** And the Fa [30]?
**A.** 0.59

**Q.** And the CI [31]?
**A.** 0.58

**Q.** And the Fa [31]?
**A.** 0.54

**Q.** And the CI [32]?
**A.** 0.38

**Q.** What about the Fa [32] of the same compound?
**A.** 0.67

**Q.** What about the CI [33] of the same compound?
**A.** 0.42

**Q.** And the Fa [33]?
**A.** 0.75

**Q.** What about the CI [34] of the same compound?
**A.** 0.82

**Q.** What about the Fa [34] of the same compound?
**A.** 0.39

**Q.** What about the CI [35] of the same compound?
**A.** 0.58

**Q.** And the Fa [35]?
**A.** 0.47

**Q.** What about the CI [36] of the same compound?
**A.** 0.41

**Q.** And the Fa [36]?
**A.** 0.56

**Q.** What about the CI [37] of the same compound?
**A.** 0.60

**Q.** And the Fa [37]?
**A.** 0.57
